Data from patent publication US20060069132A1, “Azolecarboxamide herbicides” (priority 2004, published 2006).

Key:
[1] = tested on: barnyardgrass; test: Test B pre-/postemergence herbicide test; type: in vivo, Echinochloa crus-galli
Procedure, shortened: (§1)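 Test chemicals in a non-phytotoxic solvent mixture with surfactant were applied preemergence to seeded species and postemergence to plants 2-18 cm tall (1- to 4-leaf stage); rice and barnyardgrass were also tested in a flooded paddy at the 2-leaf stage. Visual rating versus controls after 13-15 days in greenhouse, scale 0 (no effect) to 100 (complete control).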

[2] = tested on: Surinam grass; test: Test B pre-/postemergence herbicide test; type: in vivo, Urochloa decumbens
Procedure, shortened: (§2)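 Response was scored visually 13 to 15 days after treatment against untreated greenhouse controls, 0 meaning no effect and 100 complete control. Formulations (solvent mixture plus surfactant) went onto soil after planting, onto foliage of 1- to 4-leaf plants, and onto 2-leaf plants in a flooded paddy set including rice and barnyardgrass.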

[3] = tested on: cocklebur; test: Test B pre-/postemergence herbicide test; type: in vivo, Xanthium strumarium
Procedure, shortened: as §1

[4] = tested on: corn; test: Test B pre-/postemergence herbicide test; type: in vivo, Zea mays; settings: preemergence
Procedure, shortened: as §2

[5] = tested on: large crabgrass; test: Test B pre-/postemergence herbicide test; type: in vivo, Digitaria sanguinalis
Procedure, shortened: as §2

[6] = tested on: giant foxtail; test: Test B pre-/postemergence herbicide test; type: in vivo, Setaria faberi
Procedure, shortened: as §2

[7] = tested on: lambsquarters; test: Test B pre-/postemergence herbicide test; type: in vivo, Chenopodium album
Procedure, shortened: as §2

[8] = tested on: morningglory; test: Test B pre-/postemergence herbicide test; type: in vivo, Ipomoea coccinea; settings: preemergence
Procedure, shortened: as §1

[9] = tested on: pigweed; test: Test B pre-/postemergence herbicide test; type: in vivo, Amaranthus retroflexus
Procedure, shortened: as §2

[10] = tested on: blackgrass; test: Test B postemergence herbicide test; type: in vivo, Alopecurus myosuroides; settings: scale 0 (no effect) to 100 (complete control)
Procedure, shortened: (§3)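 Paddy species grown to the 2-leaf stage under flooding; blackgrass sprayed postemergence at 2–18 cm (1- to 4-leaf stage). Plants kept in a greenhouse for 13 to 15 days, then visually rated against controls on 0 (no effect) to 100 (complete control).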

[11] = tested on: wheat; test: Test B postemergence herbicide test; type: in vivo, Triticum aestivum; design: key to Wheat plant response rating: 0 = no effect, 100 = complete control; settings: scale 0 (no effect) to 100 (complete control)
Procedure, shortened: (§4)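 Greenhouse test; postemergence application to plants at 1–4 leaves (2–18 cm); paddy species at 2 leaves; evaluated visually vs controls at 13–15 days; scale 0–100 (100 = complete control).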

[12] = tested on: wild oat; test: Test B postemergence herbicide test; type: in vivo, Avena fatua; settings: scale 0 (no effect) to 100 (complete control)
Procedure, shortened: as §4

[13] = tested on: rice; test: Test B flooded paddy test; type: in vivo, Oryza sativa; settings: 1000 g ai/ha, visual rating, scale 0 to 100 (0 no effect, 100 complete control), 13 to 15 days
Procedure, shortened: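 Postemergence plants were sprayed with formulated test chemicals at 2 to 18 cm height (1- to 4-leaf stage); paddy species were grown to the 2-leaf stage. After 13 to 15 days in a greenhouse, injury was rated visually against untreated controls on a 0–100 scale (0 = no effect, 100 = complete control).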

[14] = tested on: small flower umbrella sedge; test: Test B flooded paddy test; type: in vivo, Cyperus difformis; settings: 1000 g ai/ha, visual rating, scale 0 to 100 (0 no effect, 100 complete control), 13 to 15 days
Procedure, shortened: as §3

[15] = tested on: ducksalad; test: Test B flooded paddy test; type: in vivo, Heteranthera limosa; settings: 1000 g ai/ha, visual rating, scale 0 to 100 (0 no effect, 100 complete control), 13 to 15 days
Procedure, shortened: as §3

[16] = tested on: barnyardgrass; test: Test B flooded paddy test; type: in vivo, Echinochloa crus-galli; settings: 1000 g ai/ha, visual rating, scale 0 to 100 (0 no effect, 100 complete control), 13 to 15 days
Procedure, shortened: as §3

[17] = 500 g ai/ha, visual rating 0-100, 0 no effect, 100 complete control, preemergence
[18] = Postemergence, 500 g ai/ha, visual rating after 13 to 15 days, scale 0 (no effect) to 100 (complete control)
[19] = postemergence, 125 g ai/ha, visual rating, scale 0 (no effect) to 100 (complete control)
[20] = preemergence, 125 g ai/ha, 0 to 100 scale, 0 is no effect, 100 is complete control
[21] = 500 g ai/ha, visual rating 0-100, 0 no effect, 100 complete control
[22] = 125 g ai/ha, 0 to 100 scale, 0 is no effect, 100 is complete control
[23] = Postemergence, 500 g ai/ha, visual rating after 13 to 15 days
[24] = postemergence, 125 g ai/ha, visual rating

In the case of `CC(=NO)c1cccc(NC(=O)c2cc(C(C)(C)C)nn2CCF)c1` [Compound 115], the “Plant response rating, Barnyardgrass” value [1, 17] is reported as 100, the “Plant response rating, Barnyardgrass” value [1, 18] is reported as 50 and the “Barnyardgrass plant response rating” value [1, 19] is reported as 10. For the same compound, the “Plant response rating, Barnyardgrass” value [1, 20] was 80, the “Plant response rating, Surinam Grass” value [2, 17] was 70 and the “Plant response rating, Surinam Grass” value [2, 18] was 60. For the same compound, the “Surinam Grass plant response rating” value [2, 19] was 60, the “Plant response rating, Surinam Grass” value [2, 20] was 70 and the “Plant response rating, Cocklebur” value [3, 17] was 40. For the same compound, the “Plant response rating, Cocklebur” value [3, 18] was 90, the “Cocklebur plant response rating” value [3, 19] was 80 and the “Plant response rating, Cocklebur” value [3, 20] was 20. The “Plant response rating, Corn” value [4, 21] was 30, the “Plant response rating, Corn” value [4, 22] was 0 and the “Plant response rating, Crabgrass, Large” value [5, 17] was 100. The “Plant response rating, Crabgrass, Large” value [5, 18] was 30, the “Crabgrass, Large plant response rating” value [5, 19] was 10 and the “Plant response rating, Crabgrass, Large” value [5, 20] was 90. For the same compound, the “Plant response rating, Foxtail, Giant” value [6, 17] was 100, the “Plant response rating, Foxtail, Giant” value [6, 18] was 30 and the “Foxtail, Giant plant response rating” value [6, 19] was 20. The “Plant response rating, Foxtail, Giant” value [6, 20] was 80, the “Plant response rating, Lambsquarters” value [7, 17] was 100 and the “Plant response rating, Lambsquarters” value [7, 18] was 100. For the same compound, the “Lambsquarters plant response rating” value [7, 19] was 80, the “Plant response rating, Lambsquarters” value [7, 20] was 100 and the “Plant response rating, Morningglory” value [8, 21] was 90. For the same compound, the “Plant response rating, Morningglory” value [8, 22] was 30, the “Plant response rating, Pigweed” value [9, 17] was 100 and the “Plant response rating, Pigweed” value [9, 18] was 100. The “Pigweed plant response rating” value [9, 19] was 80, the “Plant response rating, Pigweed” value [9, 20] was 80 and the “Plant response rating, Blackgrass” value [10, 23] was 20. For the same compound, the “Blackgrass plant response rating” value [10, 24] was 10, the “Plant response rating, Wheat” value [11, 23] was 30 and the “Wheat plant response rating” value [11, 24] was 30. For the same compound, the “Plant response rating, Oat, Wild” value [12, 23] was 30, the “Oat, Wild plant response rating” value [12, 24] was 10 and the “Rice plant response rating” value [13] was 60. The “Sedge, Umbrella plant response rating” value [14] was 90, the “Ducksalad plant response rating” value [15] was 90 and the “Barnyardgrass plant response rating” value [16] was 90.
